Each structure is given as a SMILES string. Bounds are passed on as bounds.

The subject of one assay is ACHN cells. The experiment in a line: Cell Titer Glo viability assay, ACHN cells. The assay is classed as cell-based. The settings on record: Homo sapiens, 144 h, absolute EC50. Put shortly:
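Cells grown in MEM with 10% FCS were seeded at 500 (A427), 400 (ACHN) or 250 (DAOY) per well and treated the next day with compound at 17 to 10 000 nM. Viability relative to untreated control was read at 144 h by CellTiter-Glo 2.0.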
(Cellular ATP, detected with luciferase, serves as a proxy for viable cell number.)

For assay [1], the target named is T1, recombinant human Wee1A kinase (Homo sapiens, UniProt P30291).
T1 construct: full length Wee1 kinase was expressed by baculovirus in insect cells; purchased Invitrogen PV3817; host or cells: insect cells (baculovirus)
T1 sequence (P30291 whole entry): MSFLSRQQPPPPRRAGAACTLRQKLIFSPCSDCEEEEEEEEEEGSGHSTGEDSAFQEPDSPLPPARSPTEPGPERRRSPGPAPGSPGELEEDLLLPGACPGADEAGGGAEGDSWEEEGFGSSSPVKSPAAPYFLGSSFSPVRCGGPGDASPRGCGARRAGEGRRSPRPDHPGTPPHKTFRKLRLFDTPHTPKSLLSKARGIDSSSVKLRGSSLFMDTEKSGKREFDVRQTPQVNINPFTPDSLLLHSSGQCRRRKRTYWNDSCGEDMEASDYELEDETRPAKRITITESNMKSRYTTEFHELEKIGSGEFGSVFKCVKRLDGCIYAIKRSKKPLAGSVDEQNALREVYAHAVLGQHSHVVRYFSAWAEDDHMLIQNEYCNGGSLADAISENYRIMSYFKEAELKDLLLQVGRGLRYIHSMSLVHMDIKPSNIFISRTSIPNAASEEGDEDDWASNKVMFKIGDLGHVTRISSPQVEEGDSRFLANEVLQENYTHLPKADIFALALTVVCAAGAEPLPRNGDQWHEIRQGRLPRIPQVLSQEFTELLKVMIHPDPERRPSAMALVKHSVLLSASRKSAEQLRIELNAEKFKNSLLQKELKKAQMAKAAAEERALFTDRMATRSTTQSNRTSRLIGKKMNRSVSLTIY
Briefly: Wee1A kinase binding assay (LanthaScreen Eu time-resolved FRET). The note with it: 30 nM tracer 178, 5 nM Wee1A kinase, 2 nM Eu-labeled antibody; 60 minutes at room temperature; read-out: Wee1A kinase Binding IC50. The gist of the method: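 Full-length, baculovirus-expressed GST-tagged Wee1A (5 nM) was mixed with 2 nM Eu-anti-GST antibody, 30 nM kinase tracer 178 and compound (1% DMSO). Buffer was 50 mM HEPES pH 7.5, 10 mM MgCl2, 1 mM EGTA, 0.01% Brij-35, incubated 60 min at room temperature. TR-FRET 665/615 nm emission ratios from duplicates were curve-fitted.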
(In general: In TR-FRET formats the signal depends on donor and acceptor labels being close together.)

Assay [2] has as its target T2, Myt1 kinase (CDK1 Thr14 phosphorylation in DAOY medulloblastoma cells) (Homo sapiens, UniProt Q99640).
T2 construct: pCDK1 Thr14 AlphaLISA read-out
T2 sequence (Q99640 1-499): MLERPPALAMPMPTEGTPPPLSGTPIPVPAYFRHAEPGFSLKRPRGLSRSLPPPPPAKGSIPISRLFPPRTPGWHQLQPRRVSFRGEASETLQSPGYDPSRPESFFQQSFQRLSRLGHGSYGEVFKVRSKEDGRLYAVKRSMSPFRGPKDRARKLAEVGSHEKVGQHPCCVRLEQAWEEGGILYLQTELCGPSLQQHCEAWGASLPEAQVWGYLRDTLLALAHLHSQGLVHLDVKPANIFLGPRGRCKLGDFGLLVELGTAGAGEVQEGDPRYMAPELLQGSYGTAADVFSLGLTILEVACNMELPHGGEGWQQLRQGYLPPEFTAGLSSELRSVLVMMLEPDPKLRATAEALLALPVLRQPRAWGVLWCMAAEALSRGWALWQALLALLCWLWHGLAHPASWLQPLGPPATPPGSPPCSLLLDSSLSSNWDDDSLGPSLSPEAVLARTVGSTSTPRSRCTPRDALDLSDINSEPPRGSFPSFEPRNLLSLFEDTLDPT
The experiment in a line: AlphaLISA assay, Myt1 kinase target engagement (phospho-CDK1 Thr14) in DAOY cells. The assay is classed as cell-based. The settings on record: 4 h treatment, read-out: CDK1 Thr14 Phosphorylation EC50. As to the method: Each of an ACHN renal cell carcinoma cell line (ATCC) and a DAOY medulloblastoma cell line, and an A427 lung cancer line were cultured in Minimum Essential Medium Eagle supplemented with 10% fetal calf serum (Sigma), 1% Penicillin-Streptomycin and 10 mM HEPES buffer (HyClone). Cell cultures were kept in a humidified incubator at 37 °C and 5% CO2. Cells were routinely tested for Mycoplasma contamination.
For target engagement assessment of Myt1 kinase inhibition, quantification of Cdk1 phosphorylated on threonine 14 was detected using the AlphaLISA® SureFire® Ultra™ Human Phospho-CDK1 (Thr14) assay (Perkin Elmer). DAOY or ACHN cells were seeded into tissue culture treated 96-well plates (VWR) to a density of 10,000 or 20,000 cells per well respectively. 24 h post seeding cells were treated for 4 h with compounds at concentrations ranging from 7 to 5000 nM. Cells were washed with PBS and lysed in 50 μl AlphaLISA lysis buffer before freezing at −80 C. Ten ul of the lysate was transferred to 384 well plates and incubated with AlphaLISA donor and acceptor beads according to the manufacturer's instructions. Dose response curves and EC50 values were calculated and visualized using GraphPad Prism version 9. Target engagement for Myt1 kinase can also be measured using the same AlphaLISA assay in OVCAR3 cells, an ovarian cancer cell line. NIH:OVCAR-3 (OVCAR3) cells are cultured in RPMI-1640 medium supplemented with 0.01 mg/ml insulin, 20% FBS, 1% Penicillin-Streptomycin and 10 mM HEPES buffer. 14,000 cells per well are seeded into 96 well tissue culture plates in full medium. Twenty-four hours post seeding, cells are treated with compound for 4 hours at concentrations ranging from 0.017 nM to 1000 nM.
(In general: In Alpha technology, singlet oxygen from a donor bead excites a nearby acceptor bead.)

Assay [3] has as its target T3, Wee1A kinase (CDK1 Tyr15 phosphorylation in ACHN renal cell carcinoma cells) (Homo sapiens, UniProt P30291).
T3 construct: pCDK1 Tyr15 immunofluorescence read-out
Briefly: High-content imaging of pCdk1 Y15, Wee1A kinase target engagement in ACHN cells. The assay is classed as cell-based. The settings on record: 4 h treatment, nuclear positivity for pCdk1 Y15 vs DMSO control, read-out: CDK1 Tyr15 Phosphorylation EC50. Put shortly: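 EC50 values come from the per-well fraction of cells with nuclear pCdk1 Y15 staining, normalised to DMSO control, by automated immunofluorescence imaging. Cells were ACHN renal carcinoma, treated 4 h with compound at 7–5,000 nM or 0.3–200 nM.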

Assay [4] concerns the target T4, Myt1 kinase (recombinant PMYT-1) (Homo sapiens, UniProt Q99640).
T4 construct: full length PMYT-1 was expressed by baculovirus in insect cells; purchased Invitrogen A30984; host or cells: insect cells (baculovirus)
T4 sequence (Q99640 1-499): T2 sequence (Q99640 1-499)
The experiment in a line: Myt1 kinase binding assay (LanthaScreen Eu Kinase Binding Assay). The settings on record: 3 nM tracer 178, 2.5 nM PMYT-1, 1 nM Eu-labeled antibody; read-out: Myt1 kinase Binding IC50. Put shortly: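 Compound binding to Myt1 kinase was assessed using the LanthaScreen Eu Kinase Binding Assay. This europium-based binding format was applied to quantify how strongly each compound bound to the Myt1 enzyme, and the binding affinity was reported for each compound as an IC50 value.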

T3 sequence (P30291 whole entry): as the sequence (P30291 whole entry) above

Usually EC50 stands for the concentration giving half of the maximal effect. Broadly, the IC50 is the midpoint of a concentration-inhibition curve. Turning to `C=CCn1c(=O)c2cnc(Nc3ccc4c(cnn4C)c3)nc2n1-c1cccc(O[C@H]2CCNC2)n1` [Compound 100, 1-{6-[(S)-3-pyrrolidinyloxy]-2-pyridyl}-2-allyl-6-(1-methyl-1H-indazol-5-ylamino)-1,2-dihydro-3H-1,2,5,7-tetraazainden-3-one], the EC50 with ACHN cells was 100 to 500 nM; in assay [2] it was more than 1000 nM; in assay [3], 100 to 500 nM. Moreover, the IC50 in assay [1] is less than 10 nM; in assay [4], less than 20 nM.

Regarding `C=CCn1c(=O)c2cnc(Nc3ccc4cccnc4c3)nc2n1-c1cccc(OC2CCNCC2)n1` [Compound 243, 2-allyl-1-[6-(4-piperidyloxy)-2-pyridyl]-6-(7-quinolylamino)-1,2-dihydro-3H-1,2,5,7-tetraazainden-3-one], the EC50 in the assay with ACHN cells was 100 to 500 nM; in assay [2], 500 to 1000 nM; in assay [3], less than 100 nM. Besides, the IC50 in assay [1] is less than 10 nM; in assay [4] it was less than 20 nM.

Turning to `C=CCn1c(=O)c2cnc(Nc3ccc(C#N)c(C)c3)nc2n1-c1cccc(OC2CCN(C)CC2)n1` [Compound 204, 2-methyl-4-[(1-{6-[(1-methylpiperidin-4-yl)oxy]pyridin-2-yl}-3-oxo-2-(prop-2-en-1-yl)-1H,2H,3H-pyrazolo[3,4-d]pyrimidin-6-yl)amino]benzonitrile], the figures for the concentration for a half-maximal effect (EC50) (in the assay with ACHN cells; in assay [2]; in assay [3]) were not above 100 nM, more than 1000 nM and less than 100 nM, respectively. The IC50 in assay [1] was less than 10 nM; in assay [4] it was 20 to 100 nM.

With `C=CCn1c(=O)c2cnc(Nc3ccc(OCC4CC4)cc3)nc2n1-c1cccc(OC2CCN(C)CC2)n1` [Compound 258, 2-allyl-6-((4-(cyclopropylmethoxy)phenyl)amino)-1-(6-((1-methylpiperidin-4-yl)oxy)pyridin-2-yl)-1,2-dihydro-3H-pyrazolo[3,4-d]pyrimidin-3-one], the EC50 in the assay with ACHN cells was not above 100 nM; in assay [2], 200 to 500 nM; in assay [3], less than 100 nM. Moreover, the values for the IC50 in assay [1] and in assay [4] were less than 10 nM and less than 20 nM, respectively.

Consider `C=CCn1c(=O)c2cnc(Nc3ccc(N4CCOCC4)c(C)c3)nc2n1-c1cccc(OC2CCN(C)CC2)n1` [Compound 270, 2-allyl-1-[6-(1-methyl-4-piperidyloxy)-2-pyridyl]-6-(4-morpholino-3-toluidino)-1,2-dihydro-3H-1,2,5,7-tetraazainden-3-one], for which the EC50 in the assay on ACHN cells is not above 100 nM; in assay [2] it was less than 200 nM; in assay [3], less than 100 nM. Moreover, the IC50 in assay [1] was less than 10 nM; in assay [4] it was less than 20 nM.

Turning to `C=CCn1c(=O)c2cnc(Nc3ccc4c(cnn4C)c3)nc2n1-c1ccnc(NC2CCN(C)CC2)n1` [Compound 313, 2-allyl-6-(1-methyl-1H-indazol-5-ylamino)-1-[2-(1-methyl-4-piperidylamino)-4-pyrimidinyl]-1,2-dihydro-3H-1,2,5,7-tetraazainden-3-one], the EC50 with ACHN cells was not above 100 nM; in assay [2], more than 1000 nM; in assay [3] it was less than 100 nM. Also, the IC50 in assay [1] is less than 10 nM; in assay [4], 20 to 100 nM.

For `C=CCn1c(=O)c2cnc(Nc3ccc(C#N)c(C)c3)nc2n1-c1cccc(OC2CCNCC2)n1` [Compound 293, 5-{2-allyl-3-oxo-1-[6-(4-piperidyloxy)-2-pyridyl]-1,2-dihydro-3H-1,2,5,7-tetraazainden-6-ylamino}-2-toluonitrile], the EC50 in the assay with ACHN cells is 100 to 500 nM; in assay [2] it was 200 to 500 nM; in assay [3], less than 100 nM. For the same compound, the IC50 in assay [1] was less than 10 nM; in assay [4], 20 to 100 nM.

Turning to `C=CCn1c(=O)c2cnc(Nc3ccc4nn(C)cc4c3)nc2n1-c1cccc(OC2CCN(C)CC2)n1` [Compound 273, 2-allyl-6-((2-methyl-2H-indazol-5-yl)amino)-1-(6-((1-methylpiperidin-4-yl)oxy)pyridin-2-yl)-1,2-dihydro-3H-pyrazolo[3,4-d]pyrimidin-3-one], the EC50 is not above 100 nM with ACHN cells, less than 200 nM in assay [2] and less than 100 nM in assay [3]. Besides, the IC50 in assay [1] is less than 10 nM; in assay [4], less than 20 nM.

Turning to `C=CCn1c(=O)c2cnc(Nc3ccc4c(cnn4C)c3)nc2n1-c1cccc(O[C@H]2CCCNC2)n1` [Compound 104, 1-{6-[(S)-3-piperidyloxy]-2-pyridyl}-2-allyl-6-(1-methyl-1H-indazol-5-ylamino)-1,2-dihydro-3H-1,2,5,7-tetraazainden-3-one], the EC50 in the assay on ACHN cells was not above 100 nM; in assay [2], 200 to 500 nM; in assay [3], less than 100 nM. Further, the figures for the IC50 in assay [1] and in assay [4] were less than 10 nM and less than 20 nM, respectively.

As to `C=CCn1c(=O)c2cnc(Nc3ccc(Cl)cc3)nc2n1-c1cccc(OC2CCNCC2)n1` [Compound 141, 2-allyl-6-((4-chlorophenyl)amino)-1-(6-(piperidin-4-yloxy)pyridin-2-yl)-1,2-dihydro-3H-pyrazolo[3,4-d]pyrimidin-3-one], the EC50 with ACHN cells is 100 to 500 nM; in assay [2], 200 to 500 nM; in assay [3] it was less than 100 nM. Also, the IC50 in assay [1] was less than 10 nM; in assay [4], less than 20 nM.

Consider `C=CCn1c(=O)c2cnc(Nc3ccc4cnccc4c3)nc2n1-c1cccc(OC2CCNCC2)n1` [Compound 244, 2-allyl-6-(6-isoquinolylamino)-1-[6-(4-piperidyloxy)-2-pyridyl]-1,2-dihydro-3H-1,2,5,7-tetraazainden-3-one], for which the EC50 in the assay with ACHN cells is 100 to 500 nM; in assay [2], 500 to 1000 nM; in assay [3], less than 100 nM. The IC50 was less than 10 nM in assay [1] and 20 to 100 nM in assay [4].

`C=CCn1c(=O)c2cnc(Nc3ccc4c(cnn4C)c3)nc2n1-c1cccc(O[C@H]2CCN(C)C2)n1` [Compound 105, 1-{6-[(S)-1-methyl-3-pyrrolidinyloxy]-2-pyridyl}-2-allyl-6-(1-methyl-1H-indazol-5-ylamino)-1,2-dihydro-3H-1,2,5,7-tetraazainden-3-one]: the EC50 is not above 100 nM with ACHN cells, 500 to 1000 nM in assay [2] and less than 100 nM in assay [3]. For the same compound, the IC50 in assay [1] is less than 10 nM; in assay [4] it was 20 to 100 nM.

As for `C=CCn1c(=O)c2cnc(Nc3ccc4c(cnn4C)c3)nc2n1-c1cccc(OC2CCN(CC)CC2)n1` [Compound 321, 2-allyl-1-[6-(1-ethyl-4-piperidyloxy)-2-pyridyl]-6-(1-methyl-1H-indazol-5-ylamino)-1,2-dihydro-3H-1,2,5,7-tetraazainden-3-one], the EC50 in the assay with ACHN cells is not above 100 nM; in assay [2], 500 to 1000 nM; in assay [3], less than 100 nM. For the same compound, the IC50 in assay [1] was less than 10 nM; in assay [4] it was 20 to 100 nM.

For the origin of these results see US20260364080A1, “PYRAZOLO-PYRIMIDINONE COMPOUNDS FOR USE IN METHODS OF INHIBITING WEE1 A KINASE” (Acrivon Therapeutics, Inc., priority 2023, published 2026).
